Data reported in patent US9937250B2, “Immunogenic tumor associated stromal cell antigen peptides and methods of their use” (University of Pittsburgh—Of the Commonwealth System of …, priority 2011, dated 2018).

Assays:
[1] = test system: CD8+ T cells from HLA-A2+ normal donors or HLA-A2+ melanoma patients; assay: In vitro sensitization of human CD8+ T cells with TASA peptide-pulsed autologous DC, IFN-γ ELISA against peptide-pulsed T2 cells; format: cell-based; settings: response = IFN-γ >30 pg/ml and >2 fold HIV-nef control; for Specific CD8+ T Cell Response, HLA-A2+ Normal Donors (of 8): number of responding donors of 8; for Specific CD8+ T Cell Response, HLA-A2+ Melanoma Patients (of 10): number of responding patients of 10
Experimental: The indicated peptides were pulsed onto autologous DC and used to prime and boost CD8^+ T cells isolated from the peripheral blood of eight normal HLA-A2^+ donors or ten HLA-A2^+ patients with melanoma. Seven days after the primary in vitro sensitization (IVS) (melanoma patients) or a secondary IVS boost (normal donors), T cells were analyzed for their reactivity against HLA-A2^+ T2 cells pulsed with the relevant peptide vs. the negative control HIV-nef190-198 peptide. After 24 hours of co-culture, cell-free supernatants were analyzed for levels of secreted IFN-γ using a commercial ELISA. Data are reported in Bar and Whisker plots, with p-values provided for paired pre- versus post-IVS data from normal donors and patients. In addition, p<0.05 was detected for MEL-Post versus ND-Post for the following peptides: DLK1 (309), NG2 (770), NG2 (2238), PDGFRβ (891) and RGS5 (5).
In vitro assessment of human CD8^+ T cell responses against TASA- or TAA-derived peptides. Peripheral blood mononuclear cells (PBMC) were obtained by venipuncture or leukapheresis from HLA-A2^+ normal donors or HLA-A2^+ melanoma patients with written consent under IRB-approved protocols (Table 3). CD8^+ T cells were then isolated by MACS (Miltenyi Biotec, Auburn, Calif.) and either not stimulated or stimulated with autologous, TASA peptide-pulsed DC as previously described (Tatsumi et al., Cancer Res., 63:4481-4489, 2003). Normal donor T cells were stimulated with TASA peptide-pulsed DC twice on a weekly schedule, with responder T cells harvested for analysis of their specificity 5 days after the booster stimulation (i.e. day 12 of T cell-DC co-culture). Melanoma patient CD8^+ T cells were analyzed after a single round of stimulation with TASA peptide-pulsed, autologous DC (i.e. day 5 of T cell-DC co-culture) as indicated. For DC-based stimulations, DC were pulsed with an equimolar (1 μM each) pool of the TASA peptides (Table 4) for 4 h at 37° C. at 5% CO2 tension. These antigen-loaded DC were then used to stimulate autologous CD8^+ T cells at a T cell-to-DC ratio of 10:1 to generate a bulk population of responder T cells. T cells were maintained in IMDM media supplemented with 10% human AB serum, 100 U/ml penicillin, […], 10 mM L-glutamine and MEM non-essential amino acids (all reagents from Invitrogen, except human AB serum that was purchased from Sigma-Aldrich, St. Louis, Mo.). Responder CD8^+ T cells were analyzed for reactivity against control (HLA-A2^+) T2 cells or T2 cells pulsed with individual TASA or TAA peptides (1 μM for 4 h at 37° C.) at a CD8^+ T cell-to-T2 cell ratio of 5:1 for 24 h. Harvested cell-free supernatants were consequently assessed for hIFN-γ content using a specific ELISA (BD Biosciences, San Diego, Calif.) with a lower detection limit of 4.7 pg/ml.
CD8^+ T cells from HLA-A2^+ normal donors or HLA-A2^+ melanoma patients recognize TASA-derived peptides in vitro. To assess whether the TASA-derived peptides identified in the HHD tumor model were also capable of being recognized by human CD8^+ T cells, IVS was performed using T cells isolated from the peripheral blood of HLA-A2^+ donors or HLA-A2^+ patients with melanoma. DC were pulsed with peptides derived from a given TASA for 4 h at 37° C., then washed and used as stimulator cells for autologous CD8^+ T cells. In cases where more than one peptide existed for a given protein, DC were pulsed with an equimolar (10 μM) mixture of each peptide. Two rounds of IVS using TASA for normal donors and a single-round of IVS using TASA for melanoma patients was applied. HLA-A2^+ normal donors (FIG. 4; Tables 4, 5A and 5B) and melanoma patients (FIG. 4; Tables 4, 5A and 5B) were each capable of recognizing many of the TASA-derived peptides.

[2] = test system: CD8+ splenocytes; assay: Tc1 response to DC.IL12/peptide vaccination (splenic CD8+ T cell IFN-γ ELISA against peptide-pulsed T2 cells); format: in vivo, HHD mice; settings: DC.IL12 pulsed with peptide(s), two s.c. vaccinations; versus DC only
Text: FIGS. 9A-9B show a series of graphs illustrating induction of specific/protective CD8^+ T cells reactive against TASA as a consequence of DC/peptide-based vaccination. In FIG. 9A, HHD mice (five animals/cohort) were vaccinated twice (d-14, d-7) subcutaneously with PBS or with isologous DC.IL12 pulsed with PBS or synthetic peptides (Table 6) derived from the indicated TASA. In cases where more than 1 peptide was identified for a given target antigen, an equimolar pool of the indicated peptides (each 10 μM) was pulsed onto DC.IL12 and used for vaccination in the relevant cohort. One week after the second immunization, spleens were harvested and splenic CD8^+ T cells isolated using MACS-beads (Miltenyi). T cells were stimulated in vitro for 48 h using the HLA-A2^+ T2 cell line pulsed with relevant TASA vs. irrelevant HIV-nef190-198 ([…]; ref. 24) peptides. Cell-free supernatants were then recovered and IFN-γ levels by ELISA. Data are reported as mean+/−SD for triplicate ELISA determinations, and are representative of 3 independent experiments performed. *p<0.05 vs. HIV-nef control peptide responses. In FIG. 9B, HHD mice were vaccinated twice (days −14 and −7; right flank) subcutaneously with PBS or with isologous DC.IL12 pulsed with PBS or synthetic TASA peptides as indicated in FIG. 1A. In cases where more than 1 peptide is identified for a given target antigen, an equimolar pool of the indicated peptides (each 10 μM) was pulsed onto DC.IL12 and used for vaccination in the relevant cohort. One week after the booster vaccine (i.e. day zero), animals were challenged subcutaneously on their left flank with 2×10^6 MC38 colon carcinoma cells. Tumor growth was then monitored every 3-4 days through day 24. All data represent mean tumor area (in mm^2)+/−SD determined from 5 mice/cohort, and are representative of three independent experiments performed. *p<0.05 versus DC only on the indicated days.
Vaccine Experiments. For prophylactic experiments, HHD mice were immunized subcutaneously on the right flank with 100 μl PBS or PBS containing 10^6 syngenic DC.IL12 cells that had been untreated or pre-pulsed for 4 h at 37° C. with 10 μM synthetic peptide(s). Immunizations occurred on days −14 and −7, with mice subsequently receiving injections of MC38 (2×10^6) tumor cells in the left flank on d0. In all cases, treatment groups contained 5 mice per cohort. For analysis of tumor cellular composition in repeat experiments, MC38 tumors were isolated by surgical resection 10 days after tumor inoculation and prepared for fluorescence imaging, as described below. […] Mice were then untreated or treated with control, syngenic DC.IL12 or DC.IL12 (10^6 cells injected subcutaneously in the left flank on days 7 and 14) pulsed with synthetic TBVA peptides. In some assays, as indicated, in vivo antibody depletions (on days 6, 13 and 20 post-tumor inoculation to assess early involvement or on days 60 and 67 or 180 and 187 to assess late involvement) of protective CD4^+ T cells or CD8^+ T cells were performed and monitored as previously described (Zhao et al., Mol Ther., 19:805-814, 2011). In all cases, tumor size (area) was monitored every 3-4 days and is reported as mean+/−SD in mm^2.
Evaluation of Specific CD8^+ T Cell Responses in HHD Mice. MACS (Miltenyi Biotec) CD8^+ splenocytes were harvested (from 3 mice/group) 7 days after the second round of DC-based vaccination (i.e. day 21 after tumor inoculation) and analyzed for reactivity against unpulsed T2 cells, TBVA peptide-pulsed T2 cells, or day 19 (flow-sorted) B16-derived PDGFRβ^+CD31^negH-2K^b(neg) pericytes or PDGFRβ^negCD31^+H-2K^b(neg) VEC isolated as previously described (Zhao et al., Mol Ther., 19:805-814, 2011). Where indicated, 10 μg of anti-HLA-A2 mAb BB7.2 or control anti-class II mAb L243 (both from ATCC, Manassas, Va.) were added to replicate co-culture wells. After 48 h, supernatants were analyzed for mIFN-γ content by specific ELISA (BD-Biosciences; lower detection limit=31.3 pg/ml). […]

Sequence	Specific CD8+ T Cell Response, HLA-A2+ Normal Donors (of 8) [1]	Specific CD8+ T Cell Response, HLA-A2+ Melanoma Patients (of 10) [1]	Tc1 Response to Peptide Vaccine (HHD) [2]
RLLGNVLVCV (listed as Homo sapiens)	1	1	+ (+, p < 0.05 versus DC only)
TLSNLSFPV (listed as Homo sapiens)	0	4	
ILGVLTSLV (listed as Homo sapiens)	2	6	+ (+, p < 0.05 versus DC only)
NMLGMLSGL (listed as Homo sapiens)	0	0	
GLLRFVTAV (listed as Homo sapiens)	2	7	+ (+, p < 0.05 versus DC only)
FLNKCETWV (listed as Homo sapiens)	2	4	+ (+, p < 0.05 versus DC only)
TLADFDPRV (listed as Homo sapiens)	2	6	+ (+, p < 0.05 versus DC only)
RLLVVYPWT (listed as Homo sapiens)	2	6	+ (+, p < 0.05 versus DC only)
YLQVDLRFL (listed as Homo sapiens)	0	4	
DIWDGIPHV (listed as Homo sapiens)	0	4	+ (+, p < 0.05 versus DC only)
VLLGAVCGV (listed as Homo sapiens)	2	1	+ (+, p < 0.05 versus DC only)
LLQERGVAYI (listed as Homo sapiens)	0	2	+ (+, p < 0.05 versus DC only)
ILLWEIFTL (listed as Homo sapiens)	2	1	+ (+, p < 0.05 versus DC only)
LLVPTCVFLV (listed as Homo sapiens)	4	4	+ (+, p < 0.05 versus DC only)
RLTPGVHEL (listed as Homo sapiens)	1	4	+ (+, p < 0.05 versus DC only)
LILPLLFYL (listed as Homo sapiens)	0	4	+ (+, p < 0.05 versus DC only)
GMLGMVSGL (listed as Homo sapiens)	2	7	+ (+, p < 0.05 versus DC only)
VIAMFFWLL (listed as Homo sapiens)	0	0	+ (+, p < 0.05 versus DC only)
TLFWLLLTL (listed as Homo sapiens)	1	3	+ (+, p < 0.05 versus DC only)
